Structures can show the parent of a compound that is named as a salt.
Assays:
[1] = target: T1, hrPARP-1 (human recombinant, Trevigen) (Homo sapiens, UniProt P09874); test: Functional assessment of human PARP-1 enzymatic activity; format: biochemical; details: 1 U hrPARP-1, 15 μg/mL activated DNA, 5 μM NAD+, 20 min room temperature
T1 construct: purchased Trevigen
Description: Functional Assessment of Human PARP-1 Enzymatic Activity
hrPARP-1 (human recombinant, Trevigen), Activated DNA (Sigma), 6(5H)-phenanthridinone (PND), (Sigma), NAD+ (Calbiochem), PARP-1 assay buffer (50 mM Tris, 2 mM MgCl2, pH 8.0), 20% acetophenone in EtOH, 2 M KOH
88% formic acid, 110° C. oven, Flexstation Plate Reader.
Compound plates were prepared by making a series of 1:3 dilutions for each tested compound, 10 steps of each at 20 μL in DMSO starting from a concentration of 5 mM. NAD^+ (39 μL of a 6.4 μM solution) were added to each well of a 96-well flat bottom fluorescent assay plate. Test compound (1 μL) was added to each well. To initiate the reaction, 10 μL of PARP (contains 5 U of PARP and 75 μg/mL activated DNA) was added with a final 1 U hrPARP-1, 15 μg/mL activated DNA and 5 μM of NAD^+. The highest concentration used for test compounds was 100 μM. The plates were incubated at room temperature on a shaker. After 20 min, 20 μL of 2 M KOH and 20 μL of 20% acetophenone were added. The plate was incubated 10 min. at 4° C., and 90 μL of 88% formic acid was added. After incubating in an 110° C. oven for 5 min, the plate was cooled to room temperature and read of a Flexstation Plate Reader (excitation at 360 nm, emission at 445 nm).
LSW data analysis software was used to generate PARP-1 IC50s.

[2] = MDCK permeability assay (efflux ratio); format: in vitro ADME, Canine; details: dog, MDCK-MDR1, pH 7.4, MDR-MDCK cells, 37° C., Papp(B-A)/Papp(A-B)
Description: 1. MDCK Permeability Assay
Multi Drug Resistance-Madin-Darby Canine Kidney (MDR-MDCK) cells were obtained from NIH (Bethesda, Md., USA). Cells were plated on Costar 3401 Transwell 12 well, 12 mm diameter, 0.4 um pore size plates (Costar, Mass., USA) and cultured for at least 6 days prior to the transport assay. The cells were carefully pre-washed with Hank's balanced salt solution containing 10 mM HEPES and 15 mM D-glucose at pH 7.4, which was also used as the assay buffer. The test compounds were dosed on the apical side (A-B) or the basolateral side (B-A) with 0.2 mM Lucifer Yellow (500 μL into apical side, 1500 μL into basolateral side). The test compounds in the apical or basolateral chambers were at an initial concentration of 10 μM. The plates were incubated at 37° C. with 5% CO2 and 90% relative humidity for 2 hours. One hundred microliters of receiver solution (basolateral side for A-B transport experiment, apical side for B-A transport experiment) was transferred to a 96 well plate for LC-MS-MS quantization of the test compound concentration and fluorometer quantization of Lucifer Yellow.
Quality control compounds and TEER measurements were run to assure proper operation of the assay (see Table 2). The TEER values of each well use for the assay should be ≧1400 ohm·cm^2.

[3] = Microsomal stability, human liver microsomes; format: in vitro ADME; details: 0.5 mg/mL protein
Description: (§1) The assay protocol was described in Summerfield S G, Read K, Begley D J, Obradovic T, Hidalgo I J, Coggon S, Lewis A V, Porter R A, Jeffrey P 2007. Central Nervous System Drug Disposition: The Relationship between in Situ Brain Permeability and Brain Free Fraction. J Pharmacol Exp Ther, 322(1):205-213; and Li Di, E. Kerns, S. Li, S. Petusky, “High Throughput Metabolic Stability Assay for Insoluble Compounds”, Int. J. Pharm., 317, 54-60, 2006.
(§2) The samples were incubated with liver microsomes from rat, mouse, and human at 1 μM at microsomal protein concentration of 0.5 mg/mL at 37° C. in the presence of NADPH cofactor. At both time 0 and 15 minutes incubation, cold acetonitrile was added to the wells to stop the reaction. The solution was centrifuged and the supernatants were analyzed using LC-MS-MS. “Phase I” represents Phase I metabolism-oxidative metabolism by microsomes and “Phase II” represents Phase I oxidative metabolism (stated above) plus cofactors added that allow for Phase II (non-oxidative, conjugative) metabolism to take place.

[4] = Microsomal stability, C57 mouse liver microsomes; format: in vitro ADME; details: 0.5 mg/mL protein
Description: as §1, §2

[5] = Microsomal stability, rat liver microsomes; format: in vitro ADME; details: 0.5 mg/mL protein
Description: as §1, §2

[6] = Brain (B)-Plasma (P) dialysis; format: in vitro ADME; details: for Kp at 5 h, 10 μM: diluted plasma or brain homogenate vs PBS, 37° C., read-out: Brain-Plasma Dialysis B/P Ratio; for B/P ratio divided by MDCK efflux ratio at 10 μM: read-out: Brain-Plasma Dialysis B/P/efflux ratio (ER)
Description: 2. Brain (B)-Plasma (P) Dialysis
DMSO stock solution of 1 mM was prepared and 10 μL was added to 990 uL plasma (1 plasma:3 PBS) or brain homogeneous (1 brain:12 PBS). The final concentration was 10 μM test compound with 1% DMSO. The dialysis was setup with 200 uL PBS vs. 200 uL diluted plasma or diluted brain homogenates with test compounds. The dialysis plate was incubated at 37° C., 70 RPM for 5 hours. At the end of the incubation, 150 μL PBS, 50 uL plasma and 50 uL of brain homogenates were sampled from the dialysis device. Each of the samples was matched with PBS, plasma and brain homogenates to give consistent matrix material. Cold acetonitrile of 300 μL was added to the sample to precipitate the proteins and tissues. The solutions were centrifuged and the supernatants were transferred for LC-MS-MS analysis. Four replicates were preformed for each test compound. Data was calculated according to Summerfield S G, Read K, Begley D J, Obradovic T, Hidalgo I J, Coggon S, Lewis A V, Porter R A, Jeffrey P 2007. Central Nervous System Drug Disposition: The Relationship between in Situ Brain Permeability and Brain Free Fraction.

[7] = NADPH, Phase I, read-out: Microsomal Stability Human Phase I t1/2
[8] = Phase I plus Phase II cofactors, read-out: Microsomal Stability Human Phase I & II t1/2
[9] = NADPH, Phase I, read-out: Microsomal Stability C57 Mouse Phase I t1/2
[10] = Phase I plus Phase II cofactors, read-out: Microsomal Stability C57 Mouse Phase I & II t1/2
[11] = NADPH, Phase I, read-out: Microsomal Stability Rat Phase I t1/2
[12] = Phase I plus Phase II cofactors, read-out: Microsomal Stability Rat Phase I & II t1/2

T1 sequence (P09874 whole entry): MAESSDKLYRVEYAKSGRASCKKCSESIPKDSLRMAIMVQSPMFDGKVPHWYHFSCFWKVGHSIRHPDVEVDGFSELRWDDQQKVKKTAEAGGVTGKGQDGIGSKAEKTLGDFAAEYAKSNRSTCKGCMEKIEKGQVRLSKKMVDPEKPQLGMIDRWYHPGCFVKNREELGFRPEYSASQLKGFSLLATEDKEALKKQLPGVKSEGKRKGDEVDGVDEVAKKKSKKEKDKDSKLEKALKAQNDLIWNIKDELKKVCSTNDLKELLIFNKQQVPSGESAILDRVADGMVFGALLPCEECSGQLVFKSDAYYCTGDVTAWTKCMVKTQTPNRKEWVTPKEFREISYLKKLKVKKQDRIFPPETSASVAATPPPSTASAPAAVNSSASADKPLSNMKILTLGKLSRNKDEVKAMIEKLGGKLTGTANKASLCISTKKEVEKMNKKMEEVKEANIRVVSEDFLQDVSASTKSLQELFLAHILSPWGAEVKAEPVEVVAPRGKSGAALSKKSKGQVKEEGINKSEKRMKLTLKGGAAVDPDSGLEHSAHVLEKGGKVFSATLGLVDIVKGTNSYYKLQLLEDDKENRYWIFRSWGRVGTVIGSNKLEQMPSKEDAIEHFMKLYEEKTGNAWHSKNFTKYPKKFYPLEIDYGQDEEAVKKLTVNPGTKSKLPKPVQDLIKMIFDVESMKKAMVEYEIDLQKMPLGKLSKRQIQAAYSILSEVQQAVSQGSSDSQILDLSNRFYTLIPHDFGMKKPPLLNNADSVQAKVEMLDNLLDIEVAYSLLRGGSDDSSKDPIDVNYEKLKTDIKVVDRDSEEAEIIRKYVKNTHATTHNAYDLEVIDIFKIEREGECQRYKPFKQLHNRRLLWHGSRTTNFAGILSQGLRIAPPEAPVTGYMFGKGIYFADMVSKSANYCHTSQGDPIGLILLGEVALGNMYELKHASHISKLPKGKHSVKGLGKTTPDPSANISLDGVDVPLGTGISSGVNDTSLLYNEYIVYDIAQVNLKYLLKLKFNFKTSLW

SMILES | IC50 [1] [nM] | melting point [°C] | efflux ratio at 2 h, 10 μM [2] | half-life at 1 μM [3, 7] [min] | half-life at 1 μM [3, 8] [min] | half-life at 1 μM [4, 9] [min] | half-life at 1 μM [4, 10] [min] | half-life at 1 μM [5, 11] [min] | half-life at 1 μM [5, 12] [min] | Kp at 5 h, 10 μM [6] | B/P ratio divided by MDCK efflux ratio at 10 μM [6]
CN(C)Cc1cc2c([nH]c(=O)c3ccccc32)s1 [Example 3, 2-[(Dimethylamino)methyl]thieno[2,3-c]isoquinolin-5(4H)-one hydrochloride] | 260 | – | – | – | – | – | – | – | – | – | –
CN(C)Cc1cc2c([nH]c(=O)c3cccc(F)c32)s1 [Example 5, 2-[(Dimethylamino)methyl]-9-fluorothieno[2,3-c]isoquinolin-5(4H)-one hydrochloride] | 200 | – | – | – | – | – | – | – | – | – | –
CN(C)Cc1cc2c([nH]c(=O)c3ccc(Cl)cc32)s1 [Example 6, 8-Chloro-2-[(dimethylamino)methyl]thieno[2,3-c]isoquinolin-5(4H)-one hydrochloride] | 2250 | – | – | – | – | – | – | – | – | – | –
COc1ccc2c(=O)[nH]c3sc(CN(C)C)cc3c2c1 [Example 8, 2-[(Dimethylamino)methyl]-8-methoxythieno[2,3-c]isoquinolin-5(4H)-one hydrochloride] | 2190 | – | – | – | – | – | – | – | – | – | –
CN(C)Cc1cc2c([nH]c(=O)c3ccccc32)o1 [Example 9, 2-[(Dimethylamino)methyl]furo[2,3-c]isoquinolin-5(4H)-one hydrochloride] | 161 | – | – | – | – | – | – | – | – | – | –
O=c1[nH]c2sc(CN(Cc3ccccc3)Cc3ccccc3)cc2c2c(O)cccc12 [Example 16, 2-[(Dibenzylamino)methyl]-9-hydroxythieno[2,3-c]isoquinolin-5(4H)-one] | 1060 | – | – | – | – | – | – | – | – | – | –
CN(Cc1ccccc1)Cc1cc2c([nH]c(=O)c3cccc(O)c32)s1 [Example 17, 2-{[Benzyl(methyl)amino]methyl}-9-hydroxythieno[2,3-c]isoquinolin-5(4H)-one] | 373 | – | – | – | – | – | – | – | – | – | –

Stronger by IC50 [1], values ahead:

IC50 [1] [nM] | melting point [°C] | efflux ratio at 2 h, 10 μM [2] | half-life at 1 μM [3, 7] [min] | half-life at 1 μM [3, 8] [min] | half-life at 1 μM [4, 9] [min] | half-life at 1 μM [4, 10] [min] | half-life at 1 μM [5, 11] [min] | half-life at 1 μM [5, 12] [min] | Kp at 5 h, 10 μM [6] | B/P ratio divided by MDCK efflux ratio at 10 μM [6] | SMILES
137 | 264 to 265 | – | – | – | – | – | – | – | – | – | COc1cccc2c(=O)[nH]c3sc(CN(C)C)cc3c12.Cl [Example 1, 2-Dimethylaminomethyl-9-methoxythieno[2,3-c]isoquinolin-5(4H)-one hydrochloride]
100 | – | – | – | – | – | – | – | – | – | – | CN(C)Cc1cc2c([nH]c(=O)c3cc(F)ccc32)s1 [Example 4, 2-[(Dimethylamino)methyl]-7-fluorothieno-[2,3-c]isoquinolin-5(4H)-one hydrochloride]
86 | – | – | > 30 | > 30 | 28 | 24 | < 1 | < 1 | 1.53 | – | CC(C)NCc1cc2c([nH]c(=O)c3cccc(O)c32)s1 [Example 13, 9-Hydroxy-2-{[(1-methylethyl)amino]methyl}thieno[2,3-c]isoquinolin-5(4H)-one]
81 | – | > 20 | > 30 | > 30 | > 30 | > 30 | > 30 | > 30 | 1.03 | < 0.05 | O=c1[nH]c2sc(CN3CCCC3)cc2c2c(O)cccc12 [Example 14, 9-Hydroxy-2-(pyrrolidin-1-ylmethyl)thieno[2,3-c]isoquinolin-5(4H)-one]
38 | – | – | – | – | – | – | – | – | – | – | CN(C)Cc1cc2c([nH]c(=O)c3cc(F)cc(O)c32)s1 [Example 7, 2-[(Dimethylamino)methyl]-7-fluoro-9-hydroxythieno[2,3-c]isoquinolin-5(4H)-one hydrochloride]
35 | – | 0.9 | 7 | 5 | 4 | 3 | 3 | 3 | 1.12 | 1.12 | O=c1[nH]c2sc(CN3CCC(Br)CC3)cc2c2c(O)cccc12 [Example 15, 2-[(4-Bromopiperidin-1-yl)methyl]-9-hydroxythieno[2,3-c]isoquinolin-5(4H)-one]
28 | – | 1.7 | > 30 | 17 | 15 | 19 | 6 | < 1 | 0.05 | 0.03 | Br.CN(C)Cc1cc2c([nH]c(=O)c3cccc(O)c32)s1 [Example 2, 2-Dimethylaminomethyl-9-hydroxythieno[2,3-c]isoquinolin-5(4H)-one hydrobromide]
5.6 | – | 3.1 | > 30 | 30 | > 30 | > 30 | 30 | > 30 | 0.81 | 0.04 | O=c1[nH]c2sc(CN3CCOCC3)cc2c2c(O)cccc12 [Example 10, 9-Hydroxy-2-(morpholin-4-ylmethyl)thieno[2,3-c]isoquinolin-5(4H)-one]
4.7 | – | 10.4 | 19 | 17 | 27 | > 30 | 10 | 18 | 1.25 | 0.12 | O=c1[nH]c2sc(CN3CCCCC3)cc2c2c(O)cccc12 [Example 11, 9-Hydroxy-2-(piperidin-1-ylmethyl)thieno[2,3-c]isoquinolin-5(4H)-one]
3.3 | – | 0.8 | 6 | 4 | 4 | 5 | 5 | 5 | 0.79 | 0.79 | O=c1[nH]c2sc(CN3CCSC3)cc2c2c(O)cccc12 [Example 12, 9-Hydroxy-2-(1,3-thiazolidin-3-ylmethyl)thieno[2,3-c]isoquinolin-5(4H)-one]
